# Patent US11045448B2, “Piperidines as covalent menin inhibitors” (THE REGENTS OF THE UNIVERSITY OF MICHIGAN, priority 2017, dated 2021)
# Biological target: menin protein (Homo sapiens (Human), UniProt O00255)
# Experiment: Fluorescence polarization (FP) competitive binding assay, menin binding affinity
# Conditions: menin protein 4 nM, probe 2 nM, room temperature 30 minutes
# Method: A fluorescence polarization (FP) competitive binding assay was used to determine the binding affinities of representative menin inhibitors. A FAM labeled fluorescent probe was designed and synthesized based on a MLL1 peptide (FAM-MM2). Equilibrium dissociation constant (Kd) value of FAM-MM2 to menin protein was determined from protein saturation experiments by monitoring the total fluorescence polarization of mixtures composed with the fluorescent probe at a fixed concentration and the protein with increasing concentrations up to full saturation. Serial dilutions of the protein were mixed with FAM-MM2 to a final volume of 200 μl in the assay buffer (PBS with 0.02% Bovine γ-Globulin and 4% DMSO. 0.01% Triton X-100 was added right before assays). Final FAM-MM2 concentration was 2 nM. Plates were incubated at room temperature for 30 minutes with gentle shaking to assure equilibrium. FP values in millipolarization units (mP) were measured using the Infinite M-1000 plate reader (Tecan U.S., Research Triangle Park, N.C.) in Microfluor 1 96-well, black, v-bottom plates (Thermo Scientific, Waltham, Mass.) at an excitation wavelength of 485 nm and an emission wavelength of 530 nm.
# The IC50, see Table 3, of representative Compounds of the Disclosure were determined in a competitive binding experiment. Mixtures of 5 μl of the tested compounds in DMSO and 195 μl of preincubated protein/probe complex solution in the assay buffer were added into assay plates which were incubated at room temperature for 30 minutes with gentle shaking. Final concentration of the menin protein was 4 nM, and final probe concentration is 2 nM. Negative controls containing protein/probe complex only (equivalent to 0% inhibition), and positive controls containing only free probes (equivalent to 100% inhibition), were included in each assay plate. FP values were measured as described above. IC50 values were determined by nonlinear regression fitting of the competition curves.
# Chain of menin protein (O00255 whole entry): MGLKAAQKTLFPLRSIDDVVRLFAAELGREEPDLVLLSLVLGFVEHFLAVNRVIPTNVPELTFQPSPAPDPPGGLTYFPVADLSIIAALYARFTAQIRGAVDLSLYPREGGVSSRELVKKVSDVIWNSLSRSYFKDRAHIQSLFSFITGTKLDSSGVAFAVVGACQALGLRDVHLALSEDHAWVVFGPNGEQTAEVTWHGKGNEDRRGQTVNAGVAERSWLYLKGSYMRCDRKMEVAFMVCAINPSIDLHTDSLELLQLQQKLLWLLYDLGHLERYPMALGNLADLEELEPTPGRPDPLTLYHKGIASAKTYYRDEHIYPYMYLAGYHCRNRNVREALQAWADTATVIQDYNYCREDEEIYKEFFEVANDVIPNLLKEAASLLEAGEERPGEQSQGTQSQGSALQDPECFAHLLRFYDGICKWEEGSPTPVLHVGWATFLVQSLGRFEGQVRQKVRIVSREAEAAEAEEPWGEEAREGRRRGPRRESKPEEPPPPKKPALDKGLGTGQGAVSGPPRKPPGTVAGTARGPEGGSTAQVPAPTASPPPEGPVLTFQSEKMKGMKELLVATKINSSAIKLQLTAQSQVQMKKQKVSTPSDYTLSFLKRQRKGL
row,SMILES,IC50 [nM]
1,"COC(=O)N[C@H]1CCC[C@@H]1[C@](C#N)(c1cccc(F)c1)C1CCN(CCCOc2ccc(S(=O)(=O)C3CN(C(=O)/C=C/CN(C)C)C3)cc2)CC1 [Cpd. No. 68, methyl ((1S,2R)-2-((S)-cyano(1-(3-(4-((1-((E)-4-(dimethylamino)but-2-enoyl)azetidin-3-yl)sulfonyl)phenoxy)propyl)piperidin-4-yl)(3-fluorophenyl)methyl)cyclopentyl)carbamate]",7
2,"C=CC(=O)N1CC(S(=O)(=O)c2ccc(OCCOc3ccc([C@](C#N)(c4cccc(F)c4)[C@H]4CCC[C@@H]4NC(=O)OC)cc3)cc2)C1 [Cpd. No. 65, methyl ((1S,2R)-2-((S)-(4-(2-(4-((1-acryloylazetidin-3-yl)sulfonyl)phenoxy)ethoxy)phenyl)(cyano)(3-fluorophenyl)methyl)cyclopentyl)carbamate]",> 10000
3,"C=CC(=O)N1CC(S(=O)(=O)c2ccc(N3CC(F)(CN4CCC([C@@](Cn5ccnc5CC)(c5cccc(F)c5)[C@H]5CCC[C@@H]5NC(=O)OC)CC4)C3)cc2)C1 [Cpd. No. 16, methyl ((1S,2R)-2-((S)-1-(1-((1-(4-((1-acryloylazetidin-3-yl)sulfonyl)phenyl)-3-fluoroazetidin-3-yl)methyl)piperidin-4-yl)-2-(2-ethyl-1H-imidazol-1-yl)-1-(3-fluorophenyl)ethyl)cyclopentyl)carbamate]",2
4,"COC(=O)N[C@H]1CCC[C@@H]1[C@](C#N)(c1cccc(F)c1)C1C[C@@H](C)N(CC2CN(c3ccc(S(=O)(=O)C4CN(C(=O)/C=C/CN(C)C)C4)cc3)C2)[C@@H](C)C1 (stereo partly drawn) [Cpd. No. 75, methyl ((1S,2R)-2-((1S)-cyano((2R,6S)-1-((1-(4-((1-((E)-4-(dimethylamino)but-2-enoyl)azetidin-3-yl)sulfonyl)phenyl)azetidin-3-yl)methyl)-2,6-dimethylpiperidin-4-yl)(3-fluorophenyl)methyl)cyclopentyl)carbamate]",6
5,"C#CC(=O)N[C@H]1CCC[C@@H]1[C@](C#N)(c1cccc(F)c1)C1CCN(CC2CN(c3ccc(C#N)cc3)C2)CC1 [compound 82, N-((1S,2R)-2-((S)-cyano(1-((1-(4-cyanophenyl)azetidin-3-yl)methyl)piperidin-4-yl)(3-fluorophenyl)methyl)cyclopentyl)propiolamide]",4
6,"C=CC(=O)N1CC(S(=O)(=O)c2ccc(OCCOc3ccc([C@@](C#N)(c4cccc(F)c4)[C@H]4CCC[C@@H]4NC(=O)OC)cc3)cc2)C1 [Cpd. No. 64, methyl ((1S,2R)-2-((R)-(4-(2-(4-((1-acryloylazetidin-3-yl)sulfonyl)phenoxy)ethoxy)phenyl)(cyano)(3-fluorophenyl)methyl)cyclopentyl)carbamate]",> 10000
7,"C=CC(=O)Nc1cccc(S(=O)(=O)c2ccc(N3CC(F)(CN4CCC([C@@](Cn5ccnc5CC)(c5cccc(F)c5)[C@H]5CCC[C@@H]5NC(=O)OC)CC4)C3)cc2)c1 [Cpd. No. 9, methyl ((1S,2R)-2-((S)-1-(1-((1-(4-((3-acrylamidophenyl)sulfonyl)phenyl)-3-fluoroazetidin-3-yl)methyl)piperidin-4-yl)-2-(2-ethyl-1H-imidazol-1-yl)-1-(3-fluorophenyl)ethyl)cyclopentyl)carbamate]",2
8,"C=CC(=O)Nc1cccc(S(=O)(=O)c2ccc(N3CC(CN4CCC([C@](C#N)(c5cccc(F)c5)[C@H]5CCC[C@@H]5NC(=O)OC)CC4)C3)cc2)c1 [Cpd. No. 70, methyl ((1S,2R)-2-((R)-(1-((1-(4-((3-acrylamidophenyl)sulfonyl)phenyl)azetidin-3-yl)methyl)piperidin-4-yl)(cyano)(3-fluorophenyl)methyl)cyclopentyl)carbamate]",> 10000
9,"N#Cc1ccc(N2CC(CN3CCC([C@@](C#N)(c4cccc(F)c4)[C@H]4CCC[C@@H]4NC(=O)CCl)CC3)C2)cc1 [compound 81, 2-chloro-N-((1S,2R)-2-((S)-cyano(1-((1-(4-cyanophenyl)azetidin-3-yl)methyl)piperidin-4-yl)(3-fluorophenyl)methyl)cyclopentyl)acetamide]",9
10,"COC(=O)N[C@H]1CCC[C@@H]1[C@](C#N)(c1cccc(F)c1)C1CCN(CC2CN(c3ccc(S(=O)(=O)c4cccc(NC(=O)/C=C/CN5CCOCC5)c4)cc3)C2)CC1 [Cpd. No. 58, methyl ((1S,2R)-2-((S)-cyano(3-fluorophenyl)(1-((1-(4-((3-((E)-4-morpholinobut-2-enamido)phenyl)sulfonyl)phenyl)azetidin-3-yl)methyl)piperidin-4-yl)methyl)cyclopentyl)carbamate]",5
11,"C=CC(=O)N1CC(S(=O)(=O)c2ccc(N3CC(CN4CCC([C@@](Cn5ccnc5CC)(c5cccc(F)c5)[C@H]5CCC[C@@H]5NC(=O)OC)CC4)C3)cc2)C1 [Cpd. No. 8, methyl ((1S,2R)-2-((S)-1-(1-((1-(4-((1-acryloylazetidin-3-yl)sulfonyl)phenyl)azetidin-3-yl)methyl)piperidin-4-yl)-2-(2-ethyl-1H-imidazol-1-yl)-1-(3-fluorophenyl)ethyl)cyclopentyl)carbamate]",2
12,"C=CC(=O)Nc1cccc(S(=O)(=O)c2ccc(N3CC(CN4CCC([C@](C#N)(c5cccc(F)c5)[C@H]5CCC[C@@H]5OC(=O)NC)CC4)C3)cc2)c1 [Cpd. No. 4, (1S,2R)-2-((R)-(1-((1-(4-((3-acrylamidophenyl)sulfonyl)phenyl)azetidin-3-yl)methyl)piperidin-4-yl)(cyano)(3-fluorophenyl)methyl)cyclopentyl methylcarbamate]",300
13,"C=CC(=O)Nc1ccc(S(=O)(=O)c2ccc(N3CC(CN4CCC([C@@](C#N)(c5cccc(F)c5)[C@H]5CCC[C@@H]5NC(=O)OC)CC4)C3)cc2)cc1 [Cpd. No. 61, methyl ((1S,2R)-2-((S)-(1-((1-(4-((4-acrylamidophenyl)sulfonyl)phenyl)azetidin-3-yl)methyl)piperidin-4-yl)(cyano)(3-fluorophenyl)methyl)cyclopentyl)carbamate]",4

# Results, then the molecule that gave them:
row,IC50 [nM],SMILES
1,9,"COC(=O)N[C@H]1CCC[C@@H]1[C@](C#N)(c1cccc(F)c1)C1CCN(CC2(F)CN(c3ccc(S(=O)(=O)C4CN(C(=O)/C=C/CN(C)C)C4)cc3)C2)CC1 [Cpd. No. 69, methyl ((1S,2R)-2-((S)-cyano(1-((1-(4-((1-((E)-4-(dimethylamino)but-2-enoyl)azetidin-3-yl)sulfonyl)phenyl)-3-fluoroazetidin-3-yl)methyl)piperidin-4-yl)(3-fluorophenyl)methyl)cyclopentyl)carbamate]"
2,4,"COC(=O)N[C@H]1CCC[C@@H]1[C@](C#N)(c1cccc(F)c1)C1CCN(CC2CN(c3ccc(S(=O)(=O)C4CN(C(=O)/C=C/CN5CCOCC5)C4)cc3)C2)CC1 [Cpd. No. 59, methyl ((1S,2R)-2-((S)-cyano(3-fluorophenyl)(1-((1-(4-((1-((E)-4-morpholinobut-2-enoyl)azetidin-3-yl)sulfonyl)phenyl)azetidin-3-yl)methyl)piperidin-4-yl)methyl)cyclopentyl)carbamate]"
3,4,"C/C=C/C(=O)Nc1cccc(S(=O)(=O)c2ccc(N3CC(CN4CCC([C@@](C#N)(c5cccc(F)c5)[C@H]5CCC[C@@H]5NC(=O)OC)CC4)C3)cc2)c1 [Cpd. No. 62, methyl ((1S,2R)-2-((S)-(1-((1-(4-((3-((E)-but-2-enamido)phenyl)sulfonyl)phenyl)azetidin-3-yl)methyl)piperidin-4-yl)(cyano)(3-fluorophenyl)methyl)cyclopentyl)carbamate]"
4,24,"C=CC(=O)N1CC(S(=O)(=O)c2ccc(N3CC(F)(CN4CCC([C@@](C#N)(c5cccc(F)c5)[C@H]5CCC[C@@H]5NC(=O)OC)CC4)C3)cc2)C1 [Cpd. No. 13, methyl ((1S,2R)-2-((S)-(1-((1-(4-((1-acryloylazetidin-3-yl)sulfonyl)phenyl)-3-fluoroazetidin-3-yl)methyl)piperidin-4-yl)(cyano)(3-fluorophenyl)methyl)cyclopentyl)carbamate]"
5,5,"C/C=C/C(=O)N1CC(S(=O)(=O)c2ccc(N3CC(CN4CCC([C@@](C#N)(c5cccc(F)c5)[C@H]5CCC[C@@H]5NC(=O)OC)CC4)C3)cc2)C1 [Cpd. No. 56, methyl ((1S,2R)-2-((S)-(1-((1-(4-((1-((E)-but-2-enoyl)azetidin-3-yl)sulfonyl)phenyl)azetidin-3-yl)methyl)piperidin-4-yl)(cyano)(3-fluorophenyl)methyl)cyclopentyl)carbamate]"
6,4,"COC(=O)N[C@H]1CCC[C@@H]1[C@](C#N)(c1cccc(F)c1)C1CCN(CC2CN(c3ccc(S(=O)(=O)C4CN(C(=O)/C=C/CN5CCCCC5)C4)cc3)C2)CC1 [Cpd. No. 71, methyl ((1S,2R)-2-((S)-cyano(3-fluorophenyl)(1-((1-(4-((1-((E)-4-(piperidin-1-yl)but-2-enoyl)azetidin-3-yl)sulfonyl)phenyl)azetidin-3-yl)methyl)piperidin-4-yl)methyl)cyclopentyl)carbamate]"
